{"source": "PubChem BioAssay AID2060888", "about": "(Molecular Pharmacology Branch, DTP, NCI, 2025);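 further: viability read after seven days of drug exposure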;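 on viability, T/C: 100% = DMSO vehicle control viability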", "tested_on": "695427-040-R-J1-PDC complex spheroid viability", "experiment": "Anticancer human tumor 695427-040-R-J1-PDC patient-derived colon adenocarcinoma cell line growth inhibition [RAS]", "conditions": "for IC50: curve of first compound; for viability, T/C: stronger effect = lower value", "method_in_brief": "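Multi-cell-type spheroids: tumor cells plus HUVEC endothelial cells and mesenchymal stem cells. RAS-pathway inhibitors were combined with targeted agents, each dosed in half-log steps down from clinical Cmax, or from 10 microM when Cmax was unknown.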"}
{"smiles": "Nc1ccn(C2OC(CO)C(O)C2(F)F)c(=O)n1", "note": "(configuration not stated) + C#Cc1c(F)ccc2cc(O)cc(-c3ncc4c(N5CC6CCC(C5)N6)nc(OCC56CCCN5CC(F)C6)nc4c3F)c12", "values": [{"measurement": "IC50", "setting": "second compound 0.0316 µM", "value": "> 1000", "unit": "nM"}, {"measurement": "IC50", "setting": "second compound 0.1 µM", "value": "> 1000", "unit": "nM"}, {"measurement": "IC50", "setting": "second compound 0.316 µM", "value": "> 1000", "unit": "nM"}, {"measurement": "IC50", "setting": "second compound 1 µM", "value": "> 1000", "unit": "nM"}, {"measurement": "IC50", "setting": "second compound 3.16 µM", "value": 75.7, "unit": "nM"}, {"measurement": "IC50", "setting": "second compound 10 µM", "value": "< 3.16", "unit": "nM"}, {"measurement": "viability, T/C", "setting": "second compound 0.0316 µM, first compound 0.00316 µM", "value": 83.8, "unit": "%"}, {"measurement": "viability, T/C", "setting": "second compound 0.0316 µM, first compound 0.01 µM", "value": 82.2, "unit": "%"}, {"measurement": "viability, T/C", "setting": "second compound 0.0316 µM, first compound 0.0316 µM", "value": 75, "unit": "%"}, {"measurement": "viability, T/C", "setting": "second compound 0.0316 µM, first compound 0.1 µM", "value": 75.7, "unit": "%"}, {"measurement": "viability, T/C", "setting": "second compound 0.0316 µM, first compound 0.316 µM", "value": 76.8, "unit": "%"}, {"measurement": "viability, T/C", "setting": "second compound 0.0316 µM, first compound 1 µM", "value": 70.8, "unit": "%"}, {"measurement": "viability, T/C", "setting": "second compound 0.1 µM, first compound 0.00316 µM", "value": 87.7, "unit": "%"}, {"measurement": "viability, T/C", "setting": "second compound 0.1 µM, first compound 0.01 µM", "value": 75.5, "unit": "%"}, {"measurement": "viability, T/C", "setting": "second compound 0.1 µM, first compound 0.0316 µM", "value": 81.9, "unit": "%"}, {"measurement": "viability, T/C", "setting": "second compound 0.1 µM, first compound 0.1 µM", "value": 68.8, "unit": "%"}, {"measurement": "viability, T/C", "setting": "second compound 0.1 µM, first compound 0.316 µM", "value": 78.4, "unit": "%"}, {"measurement": "viability, T/C", "setting": "second compound 0.1 µM, first compound 1 µM", "value": 67.2, "unit": "%"}, {"measurement": "viability, T/C", "setting": "second compound 0.316 µM, first compound 0.00316 µM", "value": 85.2, "unit": "%"}, {"measurement": "viability, T/C", "setting": "second compound 0.316 µM, first compound 0.01 µM", "value": 79.4, "unit": "%"}, {"measurement": "viability, T/C", "setting": "second compound 0.316 µM, first compound 0.0316 µM", "value": 66.7, "unit": "%"}, {"measurement": "viability, T/C", "setting": "second compound 0.316 µM, first compound 0.1 µM", "value": 72.3, "unit": "%"}, {"measurement": "viability, T/C", "setting": "second compound 0.316 µM, first compound 0.316 µM", "value": 67, "unit": "%"}, {"measurement": "viability, T/C", "setting": "second compound 0.316 µM, first compound 1 µM", "value": 60.5, "unit": "%"}, {"measurement": "viability, T/C", "setting": "second compound 1 µM, first compound 0.00316 µM", "value": 68, "unit": "%"}, {"measurement": "viability, T/C", "setting": "second compound 1 µM, first compound 0.01 µM", "value": 63.4, "unit": "%"}, {"measurement": "viability, T/C", "setting": "second compound 1 µM, first compound 0.0316 µM", "value": 69.5, "unit": "%"}, {"measurement": "viability, T/C", "setting": "second compound 1 µM, first compound 0.1 µM", "value": 59.6, "unit": "%"}, {"measurement": "viability, T/C", "setting": "second compound 1 µM, first compound 0.316 µM", "value": 59.2, "unit": "%"}, {"measurement": "viability, T/C", "setting": "second compound 1 µM, first compound 1 µM", "value": 55.7, "unit": "%"}, {"measurement": "viability, T/C", "setting": "second compound 3.16 µM, first compound 0.00316 µM", "value": 57.9, "unit": "%"}, {"measurement": "viability, T/C", "setting": "second compound 3.16 µM, first compound 0.01 µM", "value": 62.4, "unit": "%"}, {"measurement": "viability, T/C", "setting": "second compound 3.16 µM, first compound 0.0316 µM", "value": 48.9, "unit": "%"}, {"measurement": "viability, T/C", "setting": "second compound 3.16 µM, first compound 0.1 µM", "value": 45.4, "unit": "%"}, {"measurement": "viability, T/C", "setting": "second compound 3.16 µM, first compound 0.316 µM", "value": 50.8, "unit": "%"}, {"measurement": "viability, T/C", "setting": "second compound 3.16 µM, first compound 1 µM", "value": 44.7, "unit": "%"}, {"measurement": "viability, T/C", "setting": "second compound 10 µM, first compound 0.00316 µM", "value": 37.3, "unit": "%"}, {"measurement": "viability, T/C", "setting": "second compound 10 µM, first compound 0.01 µM", "value": 34.8, "unit": "%"}, {"measurement": "viability, T/C", "setting": "second compound 10 µM, first compound 0.0316 µM", "value": 33.2, "unit": "%"}, {"measurement": "viability, T/C", "setting": "second compound 10 µM, first compound 0.1 µM", "value": 36.4, "unit": "%"}, {"measurement": "viability, T/C", "setting": "second compound 10 µM, first compound 0.316 µM", "value": 33.4, "unit": "%"}, {"measurement": "viability, T/C", "setting": "second compound 10 µM, first compound 1 µM", "value": 33, "unit": "%"}]}
